Reference: patent publication US9474790B2, “Stable, protracted GLP-1/glucagon receptor co-agonists for medical use” (Novo Nordisk A/S, priority 2013, dated 2016)
Numbered stars: 1 amine (or outer) side, 2 acyl side, 3 side chain; on linkers, the order of the positions; unused ones are H or OH. Square brackets hold non-standard residues; d marks the D form. Side chains are listed from the residue outwards. Peptide text beside a SMILES is read from it. * marks the point of attachment. C18 diacid = O=C(O)CCCCCCCCCCCCCCCCC(=O)*; γGlu = O=C(O)[C@H](CCC(=O)[*:2])N[*:1]; AEEA = NCCOCCOCC(=O)O; Aib = CC(C)(N)C(=O)O

Experiments:
human GLP-1 receptor = target: T1, human GLP-1 receptor (Homo sapiens, UniProt P43220); experiment: GLP-1 receptor binding, 125I-GLP-1 displacement SPA on isolated membranes; conditions: displacement of 125I-GLP-1 from membranes; read-out: IC50 GLP-1R
T1 construct: expressed in transfected cells; host or cells: BHK cells (parent BHKTS13), clone FCW467-12A/KZ10-1, with CRE luciferase
T1 sequence (P43220 24-463): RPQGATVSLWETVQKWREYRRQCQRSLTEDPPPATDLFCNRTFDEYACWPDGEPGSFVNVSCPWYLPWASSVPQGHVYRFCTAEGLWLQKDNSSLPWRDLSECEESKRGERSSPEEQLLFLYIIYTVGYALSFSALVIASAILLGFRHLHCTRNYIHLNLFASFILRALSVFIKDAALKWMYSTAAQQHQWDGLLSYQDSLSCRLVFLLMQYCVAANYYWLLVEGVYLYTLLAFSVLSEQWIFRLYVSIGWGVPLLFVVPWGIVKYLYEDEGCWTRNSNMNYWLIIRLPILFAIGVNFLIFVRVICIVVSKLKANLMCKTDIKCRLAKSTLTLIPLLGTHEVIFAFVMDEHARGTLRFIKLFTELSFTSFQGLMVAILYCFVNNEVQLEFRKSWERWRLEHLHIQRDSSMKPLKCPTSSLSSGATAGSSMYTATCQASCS
Method: The purpose of this assay was to test the in vitro receptor binding activity of the glucagon derivatives of the invention. The receptor binding is a measure of affinity of a compound for the human GLP-1 receptor.
The receptor binding of each compound to the human GLP-1 receptor was measured in a displacement binding assay. In this type of assay a labelled ligand (in this case 125I-GLP-1) is bound to the receptor. Each derivative was added in a series of concentrations to isolated membranes containing the human GLP-1 receptor and displacement of the labelled ligand was monitored. The receptor binding was reported as the concentration at which half of the labelled ligand was displaced from the receptor, the IC50 value.
In order to test the binding of the derivatives to albumin, the assay may be performed in a very low concentration of serum albumin (max. 0.001% final assay concentration) as well as in the presence of a higher concentration of serum albumin (2.0% final assay concentration). An increase of the IC50 value, in the presence of serum albumin indicates an affinity to serum albumin and represents a method to predict a protracted pharmacokinetic profile of the test substance in animal models.
The following chemicals were used in the assay: DMEM w/o phenol red (Gibco 11880-028), Pen/strep (Invitrogen 15140-122), G418 (Invitrogen 10131-027), 1 M Hepes (Gibco 15630), EDTA (Invitrogen 15575-038), PBS (Invitrogen 14190-094), fetal calf serum (Invitrogen 16140-071), EGTA, MgCl2 (Merck 1.05832.1000), Tween 20 (Amresco 0850C335), SPA particles (wheat germ agglutinin (WGA) SPA beads, Perkin Elmer RPNQ0001), [125I]-GLP-1]-(7-36)NH2 (produced in-house), OptiPlate™-96 (Perkin Elmer).
Buffer 1 consisted of 20 mM Na-HEPES plus 10 mM EDTA and pH was adjusted to 7.4.
Buffer 2 consisted of 20 mM Na-HEPES plus 0.1 mM EDTA and pH was adjusted to 7.4.
Assay buffer consisted of 50 mM HEPES supplemented with 5 mM EGTA, 5 mM MgCl2, 0.005% Tween 20 and pH was adjusted to 7.4.
The cells used in this assay (clone FCW467-12A) were BHK cells with BHKTS13 as a parent cell line. The cells express the human GLP-1 receptor.
The cells were grown at 5% CO2 in DMEM, 10% fetal calf serum, 1% Pen/Strep (Penicillin/Streptomycin) and 1.0 mg/ml of the selection marker G418. To make a membrane preparation the cells were grown to approximately 80% confluence. The cells were washed twice in phosphate-buffered saline and harvested. The cells were pelleted using a brief centrifugation and the cell pellet was kept on ice. The cell pellet was homogenised with ULTRA-THURRAX dispersing instrument for 20-30 sec in a suitable amount of buffer 1 (e.g. 10 ml). The homogenate was centrifuged for 15 min. The pellet was re-suspended (homogenised) in 10 ml buffer 2 and centrifuged. This step was repeated once more. The resulting pellet was re-suspended in buffer 2 and the protein concentration was determined. The membranes were aliquoted and stored at minus 80° C.
1. For the receptor binding assay, 50 μl of the assay buffer was added to each well of an assay plate.
2. Test compounds were serially diluted to give the following concentrations: 8×10EE-7 M, 8×10EE-8 M, 8×10EE-9 M, 8×10EE-10 M, 8×10EE-11 M, 8×10EE-12 M and 8×10EE-13 M. Twenty-five μl were added to appropriate wells in the assay plate.
3. Cell membrane aliquots were thawed and diluted to their working concentration. Fifty μl were added to each well in the assay plate.
4. WGA SPA beads were suspended in assay buffer at 20 mg/ml. The suspension was diluted to 10 mg/ml in assay buffer just prior to addition to the assay plate. Fifty μl were added to each well in the assay plate.
5. The incubation was started by adding 25 μl of 480 pM solution of [125I]-GLP-1]-(7-36)NH2 to each well of the assay plate. A 25 μl aliquot was reserved for measuring total counts/well.
6. The assay plate was incubated for 2 h at 30° C.
7. The assay plate was centrifuged for 10 min.
8. The assay plate was read in a Perkin Elmer TopCount NXT instrument. […]

[1] = Thioflavin T (ThT) fibrillation assay for physical stability; assay type: physicochemical; conditions: 250 μM in 10 mM HEPES buffer, pH 7.5, 37° C., shaking 960 rpm
Excerpt: The purpose of this assay was to assess the physical stability of the glucagon derivatives of the invention in aqueous solutions.
Low physical stability of a peptide may lead to amyloid fibril formation, which is observed as well-ordered, thread-like macromolecular structures in the sample, which eventually may lead to gel formation. This has traditionally been measured by visual inspection of the sample. However, that kind of measurement is very subjective and depending on the observer. Therefore, the application of a small molecule indicator probe is much more advantageous. Thioflavin T (ThT) is such a probe and has a distinct fluorescence signature when binding to fibrils [Naiki et al; Anal. Biochem. 1989 177 244-249; LeVine; Methods. Enzymol. 1999 309 274-284].
The time course for fibril formation can be described by a sigmoidal curve with the following expression [Nielsen et al; Biochemistry 2001 40 6036-6046]:
Here, as depicted in FIG. 1, F is the ThT fluorescence at the time t. The constant t0 is the time needed to reach 50% of maximum fluorescence. The two important parameters describing fibril formation are the lag-time calculated by t0−2τ and the apparent rate constant kapp 1/τ.
Samples were prepared freshly before each assay. Each sample composition is described in the legends. The pH of the sample was adjusted to the desired value using appropriate amounts of concentrated NaOH and HCl. Thioflavin T was added to the samples from a stock solution in H2O to a final concentration of 1 μM.
Sample aliquots of 200 μl (250 μM of the glucagon derivative/analogue in 10 mM HEPES buffer, pH 7.5) were placed in a 96 well microtiter plate (Packard OptiPlate™-96, white polystyrene). Usually, four or eight replica of each sample (corresponding to one test condition) were placed in one column of wells. The plate was sealed with Scotch Pad (Qiagen).
Incubation at given temperature, shaking and measurement of the ThT fluorescence emission were done in a Fluoroskan Ascent FL fluorescence plate reader (Thermo Labsystems). The temperature was set to 37° C. and the plate was incubated with orbital shaking adjusted to 960 rpm with an amplitude of 1 mm. Fluorescence measurement was done using excitation through a 444 nm filter and measurement of emission through a 485 nm filter.
Each run was initiated by incubating the plate at the assay temperature for 10 min. The plate was measured every 20 minutes for a desired period of time. Between each measurement, the plate was shaken and heated as described.
After completion of the ThT assay the four or eight replica of each sample was pooled and centrifuged at 20000 rpm for 30 minutes at 18° C. The supernatant was filtered through a 0.22 μm filter and an aliquot was transferred to a HPLC vial.
The concentration of peptide in the initial sample and in the filtered supernatant was determined by reverse phase HPLC using an appropriate standard as reference. The percentage fraction the concentration of the filtered sample constituted of the initial sample concentration was reported as the recovery.
The measurement points were saved in Microsoft Excel format for further processing and curve drawing and fitting was performed using GraphPad Prism. The background emission from ThT in the absence of fibrils was negligible. The data points were typically a mean of four or eight samples.
The data set may be fitted to Eq. (1).

SMILES: CC(C)C[C@H](NC(=O)[C@H](Cc1c[nH]c2ccccc12)NC(=O)[C@H](C)NC(=O)[C@@H](NC(=O)[C@H](Cc1ccccc1)NC(=O)[C@H](CCC(=O)O)NC(=O)[C@H](CCCNC(=N)N)NC(=O)[C@H](C)NC(=O)[C@H](C)NC(=O)[C@H](CCCCN)NC(=O)[C@H](CCCCNC(=O)CC[C@H](NC(=O)CC[C@H](NC(=O)COCCOCCNC(=O)COCCOCCNC(=O)CC[C@H](NC(=O)CCCCCCCCCCCCCCCCC(=O)O)C(=O)O)C(=O)O)C(=O)O)NC(=O)[C@H](CC(=O)O)NC(=O)[C@H](CC(C)C)NC(=O)[C@H](Cc1ccc(O)cc1)NC(=O)[C@H](CCCCN)NC(=O)[C@H](CO)NC(=O)[C@H](CC(C)C)NC(=O)[C@H](CC(=O)O)NC(=O)[C@H](CO)NC(=O)[C@@H](NC(=O)[C@H](Cc1ccccc1)NC(=O)[C@@H](NC(=O)CNC(=O)[C@H](CCC(N)=O)NC(=O)C(C)(C)NC(=O)[C@@H](N)Cc1c[nH]cn1)[C@@H](C)O)[C@@H](C)O)C(C)C)C(=O)N[C@@H](CC(C)C)C(=O)N[C@@H](CC(N)=O)C(=O)N[C@H](C(N)=O)[C@@H](C)O [Example 17, N^ε29-[(4S)-4-carboxy-4-[[(4S)-4-carboxy-4-[[2-[2-[2-[[2-[2-[2-[[(4S)-4-carboxy-4-(17-carboxyheptadecanoylamino)butanoyl]amino]ethoxy]ethoxy]acetyl]amino]ethoxy]ethoxy]acetyl]amino]butanoyl]amino]butanoyl]-[Aib2,Leu10,Lys16,Lys17,Ala18,Arg20,Glu21,Ala24, Leu27]-Glucagon amide] (H-H[Aib]QGTFTSDLSKYLDK([γGlu-γGlu-AEEA-AEEA-γGlu-C18 diacid])KAAREFVAWLLNT-NH2)
- IC50 (human GLP-1 receptor): 0.2 nM
- THT assay Lag time (Ex. 76) [1]: 45 h

SMILES: CC(C)C[C@H](NC(=O)[C@H](Cc1ccc(O)cc1)NC(=O)[C@H](CCCCN)NC(=O)[C@H](CO)NC(=O)[C@H](CC(C)C)NC(=O)[C@H](CC(=O)O)NC(=O)[C@H](CO)NC(=O)[C@@H](NC(=O)[C@H](Cc1ccccc1)NC(=O)[C@@H](NC(=O)CNC(=O)[C@H](CCC(N)=O)NC(=O)C(C)(C)NC(=O)[C@@H](N)Cc1c[nH]cn1)[C@@H](C)O)[C@@H](C)O)C(=O)N[C@@H](CCC(=O)O)C(=O)N[C@@H](CO)C(=O)N[C@@H](CCCCN)C(=O)N[C@@H](C)C(=O)N[C@@H](C)C(=O)N[C@@H](CCCNC(=N)N)C(=O)N[C@@H](CCC(=O)O)C(=O)N[C@@H](Cc1ccccc1)C(=O)N[C@H](C(=O)N[C@@H](CCC(N)=O)C(=O)N[C@@H](Cc1c[nH]c2ccccc12)C(=O)N[C@@H](CC(C)C)C(=O)N[C@@H](CC(C)C)C(=O)N[C@@H](CCCCNC(=O)CC[C@H](NC(=O)CC[C@H](NC(=O)COCCOCCNC(=O)COCCOCCNC(=O)CC[C@H](NC(=O)CCCCCCCCCCCCCCCCC(=O)O)C(=O)O)C(=O)O)C(=O)O)C(=O)N[C@H](C(N)=O)[C@@H](C)O)C(C)C [Example 24, N^ε28-[(4S)-4-carboxy-4-[[(4S)-4-carboxy-4-[[2-[2-[2-[[2-[2-[2-[[(4S)-4-carboxy-4-(17-carboxyheptadecanoylamino)butanoyl]amino]ethoxy]ethoxy]acetyl]amino]ethoxy]ethoxy]acetyl]amino]butanoyl]amino]butanoyl]-[Aib2,Leu10,Glu15,Lys17,Ala18,Arg20,Glu21,Leu27, Lys28]-Glucagon amide] (H-H[Aib]QGTFTSDLSKYLESKAAREFVQWLLK([γGlu-γGlu-AEEA-AEEA-γGlu-C18 diacid])T-NH2; N-terminus assumed)
- IC50 (human GLP-1 receptor): 0.2 nM
- THT assay Lag time (Ex. 76) [1]: 28 h
